Five molecules from PMC12291762 (Antioxidants, 2025) can be followed below.

The target in assay [1] is T1, COX-2 (Homo sapiens, UniProt P35354).
T1 construct: purchased Abcam ab283401
T1 sequence (P35354 18-604): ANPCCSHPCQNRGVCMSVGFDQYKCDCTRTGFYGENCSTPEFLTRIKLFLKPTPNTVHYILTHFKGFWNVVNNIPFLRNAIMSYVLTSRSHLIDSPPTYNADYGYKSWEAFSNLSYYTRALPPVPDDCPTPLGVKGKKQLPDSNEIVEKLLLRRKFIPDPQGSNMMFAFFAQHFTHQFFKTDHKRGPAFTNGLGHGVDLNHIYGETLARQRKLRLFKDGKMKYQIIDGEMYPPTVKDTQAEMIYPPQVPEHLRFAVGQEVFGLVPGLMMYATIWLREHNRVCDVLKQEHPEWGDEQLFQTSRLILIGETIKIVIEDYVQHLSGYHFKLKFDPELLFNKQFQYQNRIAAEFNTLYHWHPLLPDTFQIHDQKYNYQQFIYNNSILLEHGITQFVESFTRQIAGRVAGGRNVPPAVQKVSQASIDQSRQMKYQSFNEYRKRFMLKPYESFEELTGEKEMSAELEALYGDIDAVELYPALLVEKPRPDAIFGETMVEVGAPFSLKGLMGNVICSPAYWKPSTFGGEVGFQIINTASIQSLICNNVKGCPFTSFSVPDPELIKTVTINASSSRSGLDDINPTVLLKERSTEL
Nature of the assay: Fluorometric COX-2 inhibitor screening kit. Format: biochemical. The conditions noted are these: mean ± standard error, three independent measurements. The procedure: The inhibitory activity of the tested compounds against COX-1 and COX-2 isoforms was assessed using fluorometric cyclooxygenase inhibitor screening kits (Catalog Numbers ab204698 and ab283401, respectively; Abcam, Cambridge, UK). These assays detect the formation of prostaglandin G2, a product of COX enzymatic activity, via fluorometric measurement.
Stock solutions of the test compounds were prepared at a concentration of 5 mM in DMSO and subsequently diluted with the same solvent to obtain the test solutions. For the assay preparation, 2 μL of each test solution was diluted with 8 μL of COX assay buffer. The solvent control (SC) consisted of 2 μL of DMSO and 8 μL of assay buffer, while the enzyme control (EC) contained 10 μL of assay buffer alone. Sample wells (S) received 10 μL of the diluted test solutions. All other steps were in accordance with the manufacturer’s protocol and the previously published article. Fluorescence was measured kinetically over a 10 min period at 25 °C, using the excitation and emission wavelengths of 535 nm and 587 nm, respectively. The percentage of inhibition was calculated as follows:(3) % Relative Inhibition=Slope of EC−Slope of S/Slope of EC×100
Fluorescence measurements were conducted on a BioTek Synergy LX multi-mode reader (Winooski, VT, USA).

The test system of assay [2] is local oxidative stress parameters. Description: Local redox state (edema-affected paw tissue homogenate) 24 h after carrageenan. It is filed as in vivo, Wistar albino rats. The note with it: inflamed paw tissue; for Local nitrites level (reduction, p < 0.05): comparator not given. The procedure: Following 24 h of carrageenan-induced paw edema inflammation model and intraperitoneal anesthesia induced by ketamine/xylazine (100/10 mg/kg of BW), the animals were sacrificed, while whole-blood samples and edema-affected paw tissues were isolated. After centrifugation of whole blood, plasma and erythrocyte lysate samples were separated for further examination of the applied compounds’ effects on the systemic redox balance state. Pro-oxidative markers including superoxide anion radical (O2∙^−), hydrogen peroxide (H2O2) nitrites (NO2^−), and index of lipid peroxidation measured as thiobarbituric acid (TBA) reactive substances (TBARS) were determined from plasma samples, while the antioxidant capacity, including superoxide dismutase (SOD) and catalase (CAT) activity, as well as the reduced glutathione (GSH) level were examined in erythrocyte lysate samples [46]. […] Edema-affected paw tissue samples were weighed (100 mg) and homogenized (OmniPrep™ multi-sample homogenizer, Omni International, Kennesaw, GA, USA) in 900 µL phosphate buffer on ice (pH = 7.4), and centrifuged at 12,000 rpm for 20 min. These supernatant samples were used for the determination of the aforementioned pro-oxidative and antioxidative parameters levels. All oxidative stress analyses were performed spectrophotometrically using a Shimadzu UV 1800 spectrophotometer (Kyoto, Japan).
Determination of the O2∙^− level was conducted by adding 950 µL of a Nitro Blue Tetrazolium (NBT) mixture with TRIS buffer in 50 µL of sample, measured at the 550 nm wavelength. The level of H2O2 was determined during the oxidation of phenol red by H2O2, which was catalyzed with horseradish peroxidase and measured at the 610 nm wavelength. Indirect measurement of nitrites was performed by the precipitation of samples with 30% sulfo-salicylic acid, followed by vortexing and centrifugation at 3000 rpm for 15 min. The equal volumes of isolated supernatant and Griess’ reagent (containing 1% sulfanilamide in 5% phosphoric acid/0.1% naphthalene ethylenediamine-dihydrochloride) were incubated for 10 min and measured at the 550 nm wavelength. The TBARS concentration was determined by adding 400 µL of sample to 200 µL of TBA in 0.05 M NaOH, followed by 15 min incubation at 100 °C. Measurement was performed at the 530 nm wavelength.
The epinephrine method was used for SOD determination. By adding 100 µL of sample, the same volume of epinephrine, and 1000 µL of carbonate buffer, the measurement was performed at the 470 nm wavelength. The determination of CAT activity was based on the preparation of a mixture containing 100 µL of sample, 50 µL of catalase buffer, and 1000 µL of 10 mM H2O2, which was measured at the 230 nm wavelength.

Broadly, the IC50 is the point on the concentration scale where inhibition reaches its midpoint. Take `C[C@H](C(=O)NCC(=O)O)c1cccc(C(=O)c2ccccc2)c1` [Compound 1, (S)-(2-(3-benzoylphenyl)propanoyl)glycine]: the half-maximal inhibitory concentration (IC50) in assay [1] is above 100 µM.

`C[C@H](C(=O)N[C@@H](Cc1c[nH]c2ccccc12)C(=O)O)c1cccc(C(=O)c2ccccc2)c1` [Compound 4, ((S)-2-(3-benzoylphenyl)propanoyl)-L-tryptophan]: the IC50 in assay [1] was 37.5 ± 3.43 µM.

`C[C@H](NC(=O)[C@@H](C)c1cccc(C(=O)c2ccccc2)c1)C(=O)O` [Compound 2, ((S)-2-(3-benzoylphenyl)propanoyl)-L-alanine]: in assay [2], the “Local SOD activity compared to Dex rats” value is listed as “increase the SOD activity”, the “Local SOD activity compared to untreated (negative control) rats” value was “increase the SOD activity”, the “Local TBARS level compared to Dex group” value was “no statistical differences” and the “Local TBARS level compared to Sol rats” value was “reduce the TBARS level”. In addition, the “Local nitrites level (reduction, p < 0.05)” value in assay [2] is listed as “markedly reduced”. Further, in assay [1], the IC50 was above 100 µM.

As to `C[C@H](C(=O)NCCCC(=O)O)c1cccc(C(=O)c2ccccc2)c1` [Compound 5, (S)-4-(2-(3-benzoylphenyl)propanamido)butanoic acid], the “Local nitrites level (reduction, p < 0.05)” value in assay [2] is recorded as “markedly reduced”. In addition, in assay [1], the IC50 was above 100 µM.

Turning to `C[C@H](C(=O)N[C@@H](Cc1ccccc1)C(=O)O)c1cccc(C(=O)c2ccccc2)c1` [Compound 3, ((S)-2-(3-benzoylphenyl)propanoyl)-L-phenylalanine], in assay [1], the IC50 was above 100 µM.
